This is an account of results in US20060217418A1, “Substituted alkyl amido piperidines” (priority 2001, published 2006).

One test deals with Sprague Dawley rats. Put plainly: Continuous Slow Transvesicular Infusion (CSTI) rat model. The test is classed as in vivo. Details: key: F: Produced an increase in bladder capacity in rats relative to baseline capacity. The following applies: intragastric administration, bladder capacity relative to baseline capacity. The protocol:
Male Sprague Dawley rats weighing approximately 300 g were used for the study. Rats were anaesthetized with pentobarbitone sodium (50 mg/kg, i.p). Through a median abdominal incision, bladder was exposed and a polyethylene cannula (PE 50) was introduced into the bladder through a small cut on the dome of the bladder and the cannula was secured with a purse string suture. The other end of the cannula was exteriorized subcutaneously at the dorsal neck area. Similarly, another cannula (PE 50) was introduced into the stomach through a paramedian abdominal incision with the free end exteriorized subcutaneously to the neck region. The surgical wounds were closed with silk 4-0 suture and the animal was allowed to recover with appropriate post surgical care. On the following day, the animal was placed in a rat restrainer. The open end of the bladder-cannula was connected to a pressure transducer as well as infusion pump through a three-way stopcock. The bladder voiding cycles were initiated by continuous infusion of normal saline at the rate of 100 μl/min. The repetitive voiding contractions were recorded on a Power Lab on-line data acquisition software. After recording the basal voiding pattern for an hour, the test drug or vehicle was administered directly into stomach through the intragastric catheter and the voiding cycles were monitored for 5 hours. Micturition pressure and frequency were calculated before and after the treatment (at every 30 min interval) for each animal. Bladder capacity was calculated from the micturition frequency, based on the constant infusion of 100 μl/min. The effect of the test drug was expressed as a percentage of basal, pre-drug bladder capacity. WAY 100635 was used as positive control for comparison.

The next test concerns the target T1, rat MCH1 receptor (Rattus norvegicus, UniProt P97639).
T1 construct: operatively linked to DNA encoding the rat MCH1 receptor so as to permit expression thereof; expressed in transfected cells; host or cells: Human embryonic kidney Peak rapid 293 (Peakr293) cells, transient calcium phosphate transfection, membranes
Put plainly: Radioligand binding assay at cloned rat MCH1 receptor ([3H]Compound A). The following applies: cloned rat MCH1, Peakr293 cell membranes, 0.08 nM [3H]Compound A, 25° C., 90 minutes; read-out: Ki(MCH-1).

The conditions of test [1]: in vivo; cited from earlier work.

T1 sequence (P97639 whole entry): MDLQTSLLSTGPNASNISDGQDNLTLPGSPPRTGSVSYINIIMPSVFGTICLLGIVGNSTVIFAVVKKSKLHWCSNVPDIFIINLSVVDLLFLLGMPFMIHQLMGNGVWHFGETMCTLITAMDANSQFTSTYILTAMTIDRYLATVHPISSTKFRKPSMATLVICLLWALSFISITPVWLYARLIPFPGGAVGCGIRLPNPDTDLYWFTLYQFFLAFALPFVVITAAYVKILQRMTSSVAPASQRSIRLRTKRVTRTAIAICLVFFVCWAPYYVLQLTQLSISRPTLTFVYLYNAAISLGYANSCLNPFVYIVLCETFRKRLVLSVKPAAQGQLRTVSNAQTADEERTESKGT

Regarding `CC(C)C(=O)Nc1cccc(C2CCN(CCCNC(=O)C(C)(C)c3ccc(Cl)cc3)CC2)c1` [Example 8, 2-(4-CHLOROPHENYL)-N-(3-{4-[3-(ISOBUTYRYLAMINO)PHENYL]-1-PIPERIDINYL} PROPYL)-2-METHYLPROPANAMIDE], the CSTI entry in the test on Sprague Dawley rats is listed as “F”. Besides, the Ki on rat MCH1 receptor was found to be 11.7 nM. Turning to `CC(C)C(=O)Nc1cccc(C2CCN(CCCNC(=O)C(c3ccccc3)c3ccccc3)CC2)n1` [Example 6], the CSTI result in the test with Sprague Dawley rats was “F”. Moreover, the Ki on rat MCH1 receptor worked out at 5.6 nM.

Regarding `CC(C)C(=O)Nc1ccc(F)c(C2CCN(CCCNC(=O)C(c3ccccc3)c3ccccc3)CC2)c1` [Example 24], in the test on Sprague Dawley rats, the CSTI result is listed as “F”. The Ki at rat MCH1 receptor stood at 4.7 nM. In the case of `Cc1ccc(NC(=O)C(C)C)cc1C1CCN(CCCNC(=O)C(c2ccc(F)cc2)c2ccc(F)cc2)CC1` [Example 32], the CSTI result with Sprague Dawley rats is on record as “F”. Further, the Ki at rat MCH1 receptor was determined as 0.6 nM. For `CC(C)C(=O)Nc1cccc(C2CCN(CCCNC(=O)C(c3ccc(F)cc3)c3ccc(F)cc3)CC2)c1` [Example 1, N-{3-[1-(3-{[BIS(4-FLUOROPHENYL)ACETYL]AMINO}PROPYL)-4-PIPERIDINYL] PHENYL}-2-METHYLPROPANAMIDE] the same measures were “F” and 1.3 nM. Turning to `CC(=O)Nc1cccc(C2CCN(CCCNC(=O)C3(c4ccc(F)cc4)CCCC3)CC2)c1` [Example 72, N-(3-{4-[3-(ACETYLAMINO)PHENYL]-1-PIPERIDINYL}PROPYL)-1-(4-FLUOROPHENYL) CYCLOPENTANECARBOXAMIDE], the Ki at rat MCH1 receptor amounted to 52.3 nM. With `CC(C)C(=O)Nc1ccc(F)c(C2CCN(CCCNC(=O)C(c3ccc(F)cc3)c3ccc(F)cc3)CC2)c1` [Example 35, N-{3-[1-(3-{[bis(4-fluorophenyl)acetyl]amino}propyl)-4-piperidinyl]-4-fluorophenyl}-2-methylpropanamide], the CSTI result in the test on Sprague Dawley rats is given as “F”. Moreover, the Ki at rat MCH1 receptor stood at 0.4 nM. In the case of `CC(C)OC(=O)Nc1cccc(C2CCN(CCCNC(=O)C3(c4ccc(F)cc4Cl)CCCCC3)CC2)c1` [Example 147, ISOPROPYL 3-{1-[3-({[1-(2-CHLORO-4-FLUOROPHENYL)CYCLOHEXYL]CARBONYL} AMINO)PROPYL]-4-PIPERIDINYL}PHENYLCARBAMATE], the Ki at rat MCH1 receptor was determined as 42 nM.

Consider `COc1ccc(NC(=O)C(C)C)cc1C1CCN(CCCNC(=O)C(c2ccccc2)c2ccccc2)CC1` [Example 20], for which the Ki at rat MCH1 receptor stood at 90.5 nM. Same read-out and setting: to `CC(=O)Nc1cccc(C2CCN(CCCNC(=O)C(C)(C)c3ccc(Cl)cc3)CC2)c1` [Example 79, N-(3-{4-[3-(ACETYLAMINO)PHENYL]-1-PIPERIDINYL}PROPYL)-2-(4-CHLORO PHENYL)-2-METHYLPROPANAMIDE] belongs 5.9 nM; to `Cc1ccc(C(C(=O)NCCCN2CCC(c3cc(NC(=O)C(C)C)ccc3F)CC2)c2ccc(C)cc2)cc1` [Example 132], 0.6 nM; to `CCCC(=O)Nc1cc(C2CCN(CCCNC(=O)C(c3ccc(Cl)cc3)c3ccc(Cl)cc3)CC2)ccc1F` [Example 108], 1.9 nM. Still for that read-out and setting: to `CCCC(=O)Nc1cccc(C2CCN(CCCNC(=O)C3(c4ccc(Cl)cc4)CCC3)CC2)c1` [Example 106, N-(3-{4-[3-(BUTYRYLAMINO)PHENYL]-1-PIPERIDINYL}PROPYL)-1-(4-CHLOROPHENYL) CYCLOBUTANECARBOXAMIDE] belongs 19 nM; to `CC(=O)Nc1cccc(C2CCN(CCCNC(=O)C(c3ccc(Cl)cc3)c3ccc(Cl)cc3)CC2)c1` [Example 55], 0.3 nM. As to `CC(C)C(=O)Nc1cccc(C2CCN(CCCNC(=O)C(c3ccc(F)cc3)c3ccc(F)cc3)CC2)n1` [Example 29], in the test on Sprague Dawley rats, the CSTI result was “F”. For the same compound, the Ki on rat MCH1 receptor came to 2.3 nM.

Regarding `Cc1ccc(NC(=O)C(C)C)cc1C1CCN(CCCNC(=O)Cc2ccc(F)cc2)CC1` [Example 175, N-{3-[1-(3-{[(4-fluorophenyl)acetyl]amino}propyl)-4-piperidinyl]-4-methylphenyl}-2-methyl propanamide], the Ki at rat MCH1 receptor amounted to 24.7 nM. Turning to `O=C(Nc1cccc(C2CCN(CCCNC(=O)C(c3ccc(Cl)cc3)c3ccc(Cl)cc3)CC2)c1)C1CC1` [Example 113, N-{3-[1-(3-{[2,2-BIS(4-CHLOROPHENYL)ACETYL]AMINO}PROPYL)-4-PIPERIDINYL] PHENYL}CYCLOPROPANECARBOXAMIDE], the Ki at rat MCH1 receptor came out at 0.8 nM. Same read-out and setting: to `Cc1ccc(C(C(=O)NCCCN2CCC(c3cccc(NC(=O)C4CC4)c3)CC2)c2ccc(C)cc2)cc1` [Example 111, N-{3-[1-(3-{[2,2-BIS(4-METHYLPHENYL)ACETYL]AMINO}PROPYL)-4-PIPERIDINYL] PHENYL}CYCLOPROPANECARBOXAMIDE] belongs 1.2 nM; to `CC(=O)Nc1cccc(C2CCN(CCCNC(=O)C(C)(c3ccccc3)c3ccccc3)CC2)c1` [Example 103, N-(3-{4-[3-(ACETYLAMINO)PHENYL]-1-PIPERIDINYL}PROPYL)-2,2-DIPHENYL PROPANAMIDE], 8 nM. On the same count and under the same terms, the value for `CC(C)C(=O)Nc1ccc(F)c(C2CCN(CCCNC(=O)C3(c4ccc(F)cc4Cl)CCCCC3)CC2)c1` [Example 133, 1-(2-CHLORO-4-FLUOROPHENYL)-N-(3-{4-[2-FLUORO-5-(ISOBUTYRYLAMINO) PHENYL]-1-PIPERIDINYL}PROPYL)CYCLO HEXANECARBOXAMIDE] was 5.9 nM.

On to `Cc1ccc(NC(=O)C(C)C)cc1C1CCN(CCCNC(=O)C(C)(c2ccccc2)c2ccccc2)CC1` [Example 96], for which the inhibition constant (Ki) at rat MCH1 receptor came out at 2.6 nM. The same measure, in the same setting: the value for `CCN(CCCN1CCC(c2cccc(NC(=O)C(C)C)c2)CC1)C(=O)C(c1ccccc1)c1ccccc1` [Example 126] was 3 nM; that for `Cc1ccc(NC(=O)C(C)C)cc1C1CCN(CCCNC(=O)C2(c3ccc(Cl)cc3)CCCCC2)CC1` [Example 85] was 4.6 nM. Still for that read-out and setting: to `CC(C)C(=O)Nc1ccc(F)c(C2CCN(CCCNC(=O)C(C)(C)c3ccc(Cl)cc3)CC2)c1` [Example 127] belongs 175 nM. The same measure, in the same setting: the value for `Cc1ccc(NC(=O)C(C)C)cc1C1CCN(CCCNC(=O)[C@H](C)c2ccc(F)cc2)CC1` [Example 169, (2R)-2-(4-fluorophenyl)-N-(3-{4-[5-(isobutyrylamino)-2-methylphenyl]-1-piperidinyl}propyl) propanamide] was 35.9 nM. In the case of `CN(C)CC1CCc2cc(NC(=O)c3ccc(-c4ccc(F)cc4)cc3)ccc2C1` (stereo not shown) [Example T-226296], in test [1], the “food intake induced by the intracerebroventricular application of MCH” value is on record as “inhibit food intake”. Regarding `CC(C)C(=O)Nc1cccc(C2CCN(CCCNC(=O)C3(c4ccc(Cl)cc4Cl)CC3)CC2)c1` [Example 41, 1-(2,4-DICHLOROPHENYL-N-(3-{4-[3-(ISOBUTYRYLAMINO)PHENYL]-1-PIPERIDINYL} PROPYL)CYCLOPROPANECARBOXAMIDE], on rat MCH1 receptor, the Ki amounted to 39.9 nM.

For `CC(=O)Nc1cccc(C2CCN(CCCNC(=O)C(c3ccccc3)(c3ccccc3)c3ccccc3)CC2)c1` [Example 105, N-(3-{4-[3-(ACETYLAMINO)PHENYL]-1-PIPERIDINYL}PROPYL)-2,2,2-TRIPHENYL ACETAMIDE], the Ki on rat MCH1 receptor turned out to be 2.8 nM. The same measure, in the same setting: the value for `Cc1ccc(NC(=O)C(C)C)cc1C1CCN(CCCNC(=O)C2(c3ccc(F)cc3)CCCC2)CC1` [Example 93] was 4.9 nM; that for `Cc1ccc(C(C(=O)NCCCN2CCC(c3cccc(NC(=O)C(C)C)c3)CC2)c2ccc(C)cc2)cc1` [Example 34, N-{3-[1-(3-{[BIS(4-METHYLPHENYL)ACETYL]AMINO}PROPYL)-4-PIPERIDINYL] PHENYL}-2-METHYLPROPANAMIDE] was 2.3 nM. Still for that read-out and setting: the value for `CCCC(=O)Nc1ccc(F)c(C2CCN(CCCNC(=O)C(c3ccccc3)c3ccccc3)CC2)c1` [Example 25] was 2.1 nM; that for `CCCC(=O)Nc1cccc(C2CCN(CCCNC(=O)C3(c4ccc(Cl)cc4)CCCC3)CC2)c1` [Example 102, N-(3-{4-[3-(BUTYRYLAMINO)PHENYL]-1-PIPERIDINYL}PROPYL)-1-(4-CHLOROPHENYL) CYCLOPENTANECARBOXAMIDE] was 7.9 nM; that for `CCCC(=O)Nc1ccc(C2CCN(CCCNC(=O)C(c3ccccc3)c3ccccc3)CC2)cc1` [Example 149] was 467 nM. On the same count and under the same terms, the value for `O=C(CC(c1ccccc1)c1ccccc1)NCCCN1CCC(c2cccc(NC(=O)C3CC3)c2)CC1` [Example 151, N-[3-(1-{3-[(3,3-DIPHENYLPROPANOYL)AMINO]PROPYL}-4-PIPERIDINYL)PHENYL] CYCLOPROPANECARBOXAMIDE] was 62 nM. Regarding `CC(=O)Nc1cccc(C2CCN(CCCNC(=O)C(c3ccccc3)c3ccccc3)CC2)c1` [Example 3, N-(3-{4-[3-(acetylamino)phenyl]-piperidinyl}propyl)-2,2-diphenylacetamide], the CSTI result in the test on Sprague Dawley rats is on record as “F”. In addition, at rat MCH1 receptor, the Ki worked out at 2.5 nM. `Cc1ccc(NC(=O)C(C)C)cc1C1CCN(CCCNC(=O)C(c2ccccc2)c2ccccc2)CC1` [Example 4]: the CSTI result in the test on Sprague Dawley rats is given as “F”. In addition, the Ki on rat MCH1 receptor was found to be 2.5 nM. `CC(C(=O)NCCCN1CCC(c2cccc(NC(=O)C3CC3)c2)CC1)c1ccc(Cl)cc1` (stereo not shown) [Example 116, N-{3-[1-(3-{[2-(4-CHLOROPHENYL)PROPANOYL]AMINO}PROPYL)-4-PIPERIDINYL] PHENYL}CYCLOPROPANECARBOXAMIDE]: the inhibitory constant (Ki) on rat MCH1 receptor is 18.9 nM.

In general, Ki refers to the equilibrium dissociation constant of an inhibitor or competing ligand from its target.
